# Literature values in patent US9707174B2, “Aqueous ophthalmic solution of olopatadine” (Gavis Pharmaceuticals, priority 2015, dated 2017).
# Details: pH about 7.0, room temperature, olopatadine by itself
structure (smiles),measurement,value
CN(C)CC/C=C1/c2ccccc2COc2ccc(CC(=O)O)cc21 [olopatadine],soluble in water up to a concentration,about 0.18 w/v %
